For nine compounds, GI50 and TGI results are on record in PubChem BioAssay (NCI).

Holding throughout (test): NCI anticancer screen, dose series, 48 h
The test system of assay [1] is CCRF-CEM leukemia.
Assay [2] has as its system RXF 393 renal.
The test system of assay [3] is IGROV1 ovarian.
Assay [4] relates to UACC-62 melanoma.
In assay [5] the test system is RPMI-8226 leukemia.
The subject of assay [6] is OVCAR-8 ovarian.
For assay [7], the system named is MDA-MB-435.
For assay [8], the system named is SNB-19 CNS.
Assay [9] relates to SF-539 CNS.
For assay [10], the system named is NCI/ADR-RES ovarian.

“And” between values parts separate entries of the source, which are not always exact repeats. Equal entries are not always repeated.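 1) Cells in 96-well plates. 2) Compound, 48 h, 5 concentrations. 3) Linear interpolation between surrounding doses. 4) Unreached endpoint = highest concentration. GI50 is the concentration that inhibits growth by half. TGI marks complete inhibition of growth.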

As for `COc1cccc2c1c(C1=C(c3cn(C)c4ccccc34)C(=O)NC1=O)cn2C`, the GI50 in [1], in [2], in assay [3], in assay [4], in assay [5] and in [6] was > 25000 nM throughout. The GI50 in assay [7] was > 13800 nM; in [8], > 25000 nM; in assay [9], > 25000 nM; in assay [10] it was > 25000 nM. Also, the TGI in [1], in [2], in assay [3], in assay [4], in assay [5] and in [6] was > 25000 nM throughout. The TGI in assay [7], in assay [8], in assay [9] and in assay [10] was > 25000 nM in each case.

Take `COc1cc(-c2ncn(/C=C\C(=O)OC(C)C)n2)cc(C(F)(F)F)c1`: the GI50 in assay [1] was 36.2 nM and 44.6 nM; in assay [2], < 13.9 nM and 14.6 nM; in assay [3], 503 nM and 171 nM; in [4] it was 112 nM and 114 nM; in assay [5] it was 36 nM and 28.6 nM; in [6], 45 nM and 31 nM. Moreover, the GI50 in assay [7] is 43.7 nM and 48.5 nM; in assay [8], 142 nM and 253 nM; in [9], 14.6 nM and 18 nM; in [10] it was 65.8 nM and 94.4 nM. Also, the TGI was 36100 nM and 12500 nM in [1]; 82.4 nM and 72.5 nM in [2]; 15800 nM and 15600 nM in assay [3]; 2000 nM and 3420 nM in [4]; > 36100 nM and 4660 nM in assay [5]; 11400 nM and 1410 nM in assay [6]. Also, the TGI in [7] was 702 nM and 457 nM; in assay [8], 13500 nM and 14900 nM; in assay [9], 225 nM and 187 nM; in [10], 11500 nM and 12700 nM.

With `COc1ccc(OC)c(-c2cc(=O)c3c(OC)c(OC)c(OC)c(OC)c3o2)c1`, the TGI was > 100000 nM in assay [1]; 77700 nM in assay [2]; > 100000 nM in [3]; 64300 nM in assay [4]; 76000 nM in assay [5]; > 100000 nM in [6]. Also, the TGI was > 100000 nM in assay [7], > 100000 nM in assay [8], > 100000 nM in assay [9] and 82800 nM in assay [10].

`CC[C@@]1(O)C(=O)OCc2c1cc1n(c2=O)Cc2c-1nc1cc3c(cc1c2C)OCO3`: the GI50 in [1] is < 0.1 nM; in assay [2], 0.755 nM; in assay [3], 35.1 nM; in assay [4] it was < 0.1 nM; in assay [5] it was < 0.1 nM; in [6] it was < 0.1 nM. For the same compound, the GI50 in assay [7] was 1.6 nM; in [8], 0.473 nM; in [9], < 0.1 nM; in assay [10], < 0.1 nM. Further, the TGI in assay [2] is 141 nM and 17.5 nM; in [4], 14.3 nM; in assay [5] it was 230 nM; in assay [8], 13.1 nM; in assay [9] it was 0.149 nM; in [10], > 100000 nM.

Take `CCc1cc2c(cc1N1CCC(N3CCOCC3)CC1)C(C)(C)c1[nH]c3cc(C#N)ccc3c1C2=O`: the GI50 was 745 nM and 826 nM and 1540 nM in assay [1]; 1500 nM and 1530 nM in assay [2]; 2480 nM and 1450 nM and 772 nM in [3]; 3170 nM and 3000 nM and 2640 nM in assay [4]; 549 nM and 415 nM and 497 nM in assay [5]; 648 nM and 935 nM and 1300 nM in assay [6]. For the same compound, the GI50 in [7] is 1460 nM and 1340 nM and 2100 nM; in assay [8], 1660 nM and 1790 nM and 3170 nM; in assay [9], 1800 nM and 1580 nM and 1620 nM; in assay [10] it was 1010 nM and 1390 nM and 1590 nM. For the same compound, the TGI in [1] is > 100000 nM; in [2] it was 3470 nM and 3780 nM and 3840 nM; in assay [3] it was 16700 nM and 5160 nM and 4000 nM; in assay [4] it was 18100 nM and 13700 nM and > 10000 nM; in [5], 8900 nM and > 10000 nM; in assay [6], 2480 nM and 3110 nM and 3570 nM. Moreover, the TGI in [7] was 5970 nM and 5530 nM and > 10000 nM; in [8] it was 4020 nM and 4440 nM and > 10000 nM; in assay [9], 3920 nM and 3430 nM and 3860 nM; in assay [10] it was 3810 nM and 6340 nM and 6470 nM.

In the case of `CCOC(=O)C(C)(C)C(O)C(C)C` (centres undefined), the TGI in assay [1], in assay [2], in assay [3], in [4], in assay [5] and in assay [6] was > 100000 nM throughout. Besides, the TGI in assay [7], in [8], in [9] and in assay [10] was > 100000 nM each time.

Take `CCCCCCCCCCCCCCCCOP(=O)(O)OP(=O)(O)OCC1OC(n2ccc(N)nc2=O)C(O)C1O` (centres undefined): the TGI in [1], in [2], in assay [3], in assay [4], in assay [5] and in [6] was > 100000 nM in each case. Also, the TGI in assay [7], in assay [8], in assay [9] and in assay [10] was > 100000 nM throughout. Also, the GI50 was > 100000 nM and 21300 nM in assay [4]; > 100000 nM and 23800 nM in assay [8]; > 100000 nM and 13700 nM in assay [10].

As to `O=C(CCC(C(=O)c1ccccc1)c1ccccc1)c1ccccc1` (centres undefined), the GI50 in assay [1] was 3970 nM; in assay [2], 11800 nM; in assay [3] it was 32000 nM; in assay [4] it was 7150 nM; in [5], 5750 nM; in assay [6], 21600 nM. Further, the GI50 is 2010 nM in assay [7], 73800 nM in assay [8], 52000 nM in assay [9] and 4740 nM in assay [10]. For the same compound, the TGI in [1] is 77200 nM; in assay [2], > 100000 nM; in assay [3], > 100000 nM; in assay [4] it was > 100000 nM; in assay [5] it was 76100 nM; in [6], > 100000 nM. Also, the TGI in [7] is 6030 nM; in assay [8] it was > 100000 nM; in assay [9], > 100000 nM; in [10], > 100000 nM.

Turning to `C[C@H]1[C@H]2[C@H]3CC[C@@H]4[C@@]5(C)C/C(=C/c6cccnc6)C(=O)C(C)(C)[C@@H]5CC[C@@]4(C)[C@]3(C)CC[C@]23CO[C@]1(C)[C@@H](C(=O)/C=C\c1cccnc1)C3`, the GI50 in assay [1] is 440 nM; in assay [2], 824 nM; in assay [3], 975 nM; in [4] it was 670 nM; in assay [5], 255 nM; in [6] it was 1590 nM. Also, the GI50 was 1170 nM in assay [7], 869 nM in assay [8], 1030 nM in assay [9] and 1540 nM in [10]. Besides, the TGI was > 50000 nM in assay [1]; 1560 nM in assay [2]; 2200 nM in [3]; 1670 nM in [4]; 2260 nM in assay [5]; > 50000 nM in [6]. Also, the TGI is 2930 nM in [7], 1760 nM in [8], 2310 nM in assay [9] and > 50000 nM in [10].
